Measured values taken from ChEMBL document CHEMBL1201862, “PubChem BioAssay data set” (2004).
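How tested: cells in 96-well plates exposed to compound for 48 hours at five concentrations. At the GI50, growth is halved.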 The source made the active and inactive calls. Rule as the data show it: active = GI50 up to about 1.1 µM and inactive = higher.

Columns and labels:
Assay in all cases: growth of human tumour cells (NCI), 48 h
SK-MEL-28 = system: SK-MEL-28
OVCAR-3 = system: OVCAR-3
SK-MEL-5 = system: SK-MEL-5
MOLT-4 = system: MOLT-4
NCI/ADR-RES = system: NCI/ADR-RES
OVCAR-4 = system: OVCAR-4
KM-20L2 = system: KM-20L2
HCT-116 = system: HCT-116
KM12 = system: KM12
HCT-15 = system: HCT-15
HOP-92 = system: HOP-92
HOP-62 = system: HOP-62
SNB-19 = system: SNB-19
A549 = system: A549
UACC-257 = system: UACC-257
SN12C = system: SN12C
A498 = system: A498
RXF 393 = system: RXF 393
NCI-H23 = system: NCI-H23
SK-OV-3 = system: SK-OV-3

Compound | GI50 (SK-MEL-28) | GI50 (OVCAR-3) | GI50 (SK-MEL-5) | GI50 (MOLT-4) | GI50 (NCI/ADR-RES) | GI50 (OVCAR-4) | GI50 (KM-20L2) | GI50 (HCT-116) | GI50 (KM12) | GI50 (HCT-15) | GI50 (HOP-92) | GI50 (HOP-62) | GI50 (SNB-19) | GI50 (A549) | GI50 (UACC-257) | GI50 (SN12C) | GI50 (A498) | GI50 (RXF 393) | GI50 (NCI-H23) | GI50 (SK-OV-3)
CC[C@]12C=CCN3CC[C@@]4(c5ccc(OC)cc5N(C)[C@H]4[C@@](O)(C(=O)OC)[C@@H]1OC(C)=O)[C@@H]32 | > 200 µM (inactive) | 102 µM (inactive) | 99.5 µM (inactive) | 81.3 µM (inactive) | 156 µM (inactive) | 35.4 µM (inactive) | > 101 µM (inactive) | 172 µM (inactive) | > 200 µM (inactive) | 75.3 µM | 46.2 µM (inactive) | 171 µM (inactive) | > 200 µM (inactive) | 162 µM (inactive) | 172 µM (inactive) | > 183 µM (inactive) | 102 µM (inactive) | 96.8 µM (inactive) | > 171 µM (inactive) | > 200 µM (inactive)
CC1=CC(O)C(O)C2(C)C1CC1OC(=O)C(O)C3C(C)C(O)C4(O)OCC13C42 (stereo not given) | 118 µM (inactive) | 10.2 µM (inactive) | 29.4 µM (inactive) | 12.2 µM (inactive) | 242 µM (inactive) | 40.9 µM (inactive) | 22.4 µM (inactive) | 99.5 µM (inactive) | 13.3 µM (inactive) | 335 µM | 6.03 µM (inactive) | 65.3 µM (inactive) | 13.7 µM (inactive) | 27.9 µM (inactive) | 103 µM (inactive) | 236 µM (inactive) | 17.9 µM (inactive) | 8.81 µM (inactive) | 49.5 µM (inactive) | 49.9 µM (inactive)
CCNC(=O)C(C)C1CCC2(C)C=CC(=O)C(C)=C2C1O (stereo not given) | > 100 µM (inactive) | > 100 µM (inactive) | > 100 µM (inactive) | > 100 µM (inactive) | > 100 µM (inactive) | > 100 µM (inactive) | > 100 µM (inactive) | > 100 µM (inactive) | > 100 µM (inactive) | > 100 µM | > 100 µM (inactive) | > 100 µM (inactive) | > 100 µM (inactive) | 99.5 µM (inactive) | > 100 µM (inactive) | > 100 µM (inactive) | > 100 µM (inactive) | > 100 µM (inactive) | > 100 µM (inactive) | > 100 µM (inactive)
